Common to all, as to assay: NCI anticancer screen, dose series, 48 h
The subject of test [1] is NCI-H23 lung.
In test [2] the test system is NCI-H226 lung.
Test [3] has as its system LOX IMVI melanoma.
Test [4] relates to A498 renal.
Test [5] concerns SK-MEL-5 melanoma.
Test [6] relates to UACC-62 melanoma.
Test [7] deals with RXF 393 renal.
In test [8] the test system is HT29 colon.
In test [9] the test system is EKVX NSCLC.

Values joined by “and” are separate entries in the source; they are usually repeats but may differ in a detail not shown here. Equal entries are not always repeated.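 Five concentrations, 48 hours, 96-well plates. GI50 = concentration required for 50% inhibition of growth. At the TGI there is no net growth.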

For `O=Nc1c(-c2c(O)[nH]c3ccc([N+](=O)[O-])cc23)[nH]c2ccc(O)cc12`, the GI50 in test [1] was 0.549 µM; in test [2], 0.383 µM; in test [3] it was 0.171 µM; in [4], 0.218 µM; in [5], 0.189 µM; in test [6] it was 0.211 µM. The GI50 in test [7] is 0.18 µM; in test [8] it was 12.4 µM. Also, the TGI is above 49.5 µM in test [1]; above 100 µM in test [2]; 0.531 µM in test [3]; 1.24 µM in test [4]; 0.414 µM in test [5]; 0.439 µM in test [6]. The TGI in test [7] is 0.475 µM; in [8], above 100 µM.
On to `CCOC(=O)C1=C(C(=O)c2ccc(C)cc2)C(c2cccc([N+](=O)[O-])c2)C(C(=O)c2ccc(C)cc2)=C(C(=O)OCC)N1`, for which the TGI was determined as 30.1 µM in test [1]; 35.2 µM in [2]; 31.4 µM in test [3]; 33.1 µM in [5]; 33.5 µM in test [6]; 47.1 µM in test [9]. The TGI in test [7] was determined as 68.6 µM; in [8], 28.7 µM.
With `CCCn1c(SC)nc(COC(=O)NC)c1COC(=O)NC`, the TGI in [1], in test [2], in test [3], in test [4], in test [5] and in [6] was above 100 µM throughout. The TGI in test [9] and in test [8] was above 100 µM each time.
With `O=[N+]([O-])c1ccc(S(=O)Cc2ccccc2)c([N+](=O)[O-])c1` (stereo unspecified), the GI50 in test [1] was 2.54 µM; in test [2], 2.27 µM; in test [3] it was 1.6 µM; in [4], 13 µM; in test [5] it was 9.08 µM; in test [6] it was 2.55 µM. For the same compound, the GI50 was 12.8 µM in test [9] and 1.45 µM in test [7]. Moreover, the TGI was determined as 8.91 µM in test [1]; 5.3 µM in [2]; 2.94 µM in test [3]; 25.7 µM in [4]; 21.1 µM in test [5]; 8.89 µM in test [6]. Moreover, the results for the TGI in test [9] and in [7] were 26.6 µM and 2.78 µM, respectively.
As to `CO/C(=N\N=C\c1cccc(Cl)c1)c1ccncc1`, the TGI in test [1], in test [2], in [3], in test [9], in test [7] and in test [8] was above 10 µM each time.
`O=C([CH-]C(=O)c1ccccc1)c1ccccc1.O=C([CH-]C(=O)c1ccccc1)c1ccccc1.O=C([CH-]C(=O)c1ccccc1)c1ccccc1.[Nd+3].[OH3+]`: the GI50 in test [1] was 2.97 µM; in [3], 11.5 µM; in test [4], 9 µM; in test [5] it was 2.79 µM; in test [6] it was 4.3 µM; in [9], 2.8 µM. Besides, in test [8], the GI50 was 4.64 µM. The TGI in test [1] was 13.3 µM; in [3], 29.4 µM; in test [4], 27.3 µM; in test [5] it was 11.8 µM; in test [6], 19.2 µM; in test [9], 13.9 µM. In test [8], the TGI is 16.1 µM.
Consider `CC1OC2=N[C@@H]1C(=O)N[C@@H](C(C)C)C1=N[C@H](C(=O)N[C@@H](C(C)C)C3=N[C@H](C(=O)N[C@@H](C(C)C)C4=N[C@H](C(=O)N[C@H]2C(C)C)C(C)O4)C(C)O3)C(C)O1` (stereo partly specified), for which the TGI in test [1], in [2], in test [3], in test [4], in test [5] and in test [9] was above 10 µM throughout. Also, the TGI in [7] and in test [8] was above 10 µM throughout.
For the compound `O=C1C(c2c[nH]c3ccccc23)=C(c2c[nH]c3ccccc23)C(=O)N1O`, the GI50 was above 25 µM in test [1]; above 25 µM in test [2]; 4.65 µM in test [3]; 8.1 µM in [4]; above 25 µM in test [5]; 24.6 µM in [6]. Moreover, the figures for the GI50 in [7] and in test [8] were above 22.7 µM and above 25 µM, respectively. Moreover, the TGI in test [1], in [2], in [3], in [4], in [5] and in test [6] was above 25 µM each time. Moreover, the TGI in test [7] and in test [8] was above 25 µM throughout.
For the compound `O=C(Nc1cccs1)c1c(O)[nH]c(=S)[nH]c1=O`, the TGI in test [1], in test [2], in [3], in test [4], in test [5] and in test [6] was above 100 µM each time.
For the compound `COC[C@@H](N=CN1CCc2cc(OC)c(OC)cc2[C@@H]1C)C(C)(C)C`, the TGI in test [1], in [2], in test [5], in [6], in test [9] and in test [7] was above 100 µM each time. In test [8], this compound returned a TGI above 100 µM.
`CCCCS(=O)CCC(N)C(=O)O` (stereo unspecified): the TGI in [1], in test [2], in test [4], in [5], in test [6] and in [9] was above 100 µM throughout. Further, the TGI in [7] and in [8] was above 100 µM each time.
On to `COc1ccc2c(c1)/C(=C\c1cccnc1)C(=O)N2`, for which the GI50 in test [1] was 16.6 µM; in test [2] it was 7.38 µM; in test [3], 8.83 µM; in test [4], 23.4 µM; in test [5], 16.5 µM; in [9], 3.79 µM. Besides, the GI50 in test [7] is 13.4 µM. For the same compound, the TGI was found to be 35 µM in [1]; 23.6 µM in test [2]; 25.3 µM in [3]; 49.8 µM in [4]; 45.7 µM in [5]; 25.2 µM in [9]. The compound further came in with a TGI in test [7] of 37 µM.
As for `O=C1C=C(NCCNC(=S)Nc2ccccc2)c2nccc3c2c1nc1ccccc13`, the GI50 in test [1] is 31.5 µM; in test [2], 70 µM; in [3], 31.5 µM; in test [4], above 100 µM; in test [5], 27.5 µM; in [6], 20.6 µM. Besides, the GI50 in [9] is above 100 µM; in test [8], 44.6 µM. The TGI in [1] is above 100 µM; in test [2] it was above 100 µM; in [3] it was above 100 µM; in test [4] it was above 100 µM; in test [5], above 100 µM; in test [6], 73 µM. Moreover, the TGI in [9] and in [8] was above 100 µM throughout.
Regarding `CCCCCCCNc1nc(C(=O)OCC)ncc1-c1ccc(C(F)(F)F)cc1`, the GI50 in test [1] was 42.2 µM; in [2], 30.5 µM; in test [3] it was 40.9 µM; in test [4] it was 16 µM; in [5] it was 20.6 µM; in test [6], 25.2 µM. The GI50 in test [7] is 19 µM; in [8], 41.5 µM. Further, the TGI in test [1] was above 100 µM; in test [2], above 100 µM; in test [3], above 100 µM; in test [4], above 100 µM; in test [5], 51.9 µM; in test [6], above 100 µM. Further, the TGI was 71.1 µM in [7] and above 100 µM in test [8].
On to `O=C(c1ccc2ccccc2c1)c1c(C(F)(F)F)n([O-])c2cc(F)c(F)cc2[n+]1=O`, for which the GI50 in test [1] is 2.62 µM; in test [2], 4.86 µM; in [4] it was 16 µM; in test [5] it was 4.84 µM; in test [6] it was 2.75 µM; in test [9], 2.46 µM. For the same compound, the GI50 in test [7] was 1.49 µM; in test [8], 2.34 µM. Moreover, the TGI was 9.29 µM in test [1]; 44.2 µM in test [2]; 32.1 µM in test [4]; 18.3 µM in test [5]; 6.62 µM in [6]; 6.43 µM in test [9]. Besides, the TGI was 2.97 µM in test [7] and 5.29 µM in test [8].
Take `COc1ccc(N2Cc3cnc(Nc4ccccc4)nc3N([C@@H]3CC[C@@H](O)C3)C2=O)cc1`: the GI50 in test [1] is 8.17 µM; in [2] it was 0.523 µM; in [3], 1.14 µM; in test [4] it was 0.128 µM; in test [5] it was 9.25 µM; in test [6] it was 2.74 µM. The GI50 is 0.399 µM in [7] and 3.57 µM in test [8]. The TGI was above 25 µM in [1]; above 25 µM in test [2]; 5.17 µM in test [3]; 1.2 µM in test [4]; above 25 µM in test [5]; above 25 µM in [6]. Moreover, the results for the TGI in test [7] and in test [8] were 3.18 µM and above 25 µM, respectively.
In the case of `Nc1ncnc2c1ncn2C1CCC(COS(N)(=O)=O)C1` (stereo unspecified), the TGI in test [1], in test [2], in [3], in test [5], in [6] and in test [9] was above 100 µM in each case. Moreover, the TGI in test [7] and in test [8] was above 100 µM in each case.
Regarding `C1C[OH+]CC[OH+]CCNCC[OH+]CC[OH+]CCN1.[Cl-].[Pt+4]`, the GI50 in test [1] is above 100 µM; in test [2] it was above 100 µM; in test [3], above 100 µM; in test [4] it was above 100 µM; in test [5] it was above 100 µM; in [6], 91.9 µM. The GI50 in test [9] and in test [8] was above 100 µM each time. The TGI in test [1], in test [2], in test [3], in test [4], in test [5] and in test [6] was above 100 µM each time. The TGI in [9] and in test [8] was above 100 µM each time.
Turning to `CCCCCCCCCCCCCCN`, the TGI in test [1], in [3], in test [4], in test [5], in test [6] and in test [9] was above 100 µM throughout. The TGI in [7] and in test [8] was above 100 µM in each case.
Take `CC[C@@]1(O)C[C@H](OC2CC(N(C)C)C(OC3CC(O)C(OC4CCC(=O)C(C)O4)C(C)O3)C(C)O2)c2c(cc3c(c2O)C(=O)c2c(O)cccc2C3=O)[C@H]1C(=O)OC` (stereo partly specified): the TGI in test [1] is 0.12 µM and 0.125 µM; in test [2] it was 0.0948 µM and 0.13 µM; in test [4], 0.0539 µM and 0.0599 µM; in [5], 0.0592 µM and 0.164 µM; in test [6] it was 0.0491 µM and 0.115 µM; in test [9], 0.415 µM and 0.452 µM. For the same compound, the TGI in test [7] is 0.0345 µM and 0.124 µM; in test [8] it was 0.903 µM and 0.318 µM.
In the case of `COc1ccc(-c2nc3sc(-c4ccc(Cl)cc4)cn3n2)cc1`, the GI50 in test [1] is 6.66 µM; in test [2] it was 11.1 µM; in [3] it was above 50 µM; in test [5], 14 µM; in test [6], 8.24 µM; in test [9], 4.82 µM. Further, the GI50 is 6 µM in [7] and 2.96 µM in test [8]. Also, the TGI in [1], in test [2], in [3], in [5], in test [6] and in test [9] was above 50 µM in each case. Further, the TGI was 39.7 µM in test [7] and above 50 µM in test [8].
In the case of `COc1ccccc1N=C(N)N/N=C/c1c[nH]c2ccccc12`, the TGI in test [1] stood at 19.2 µM; in test [2] it was 28.5 µM; in [3], 22.6 µM; in test [5] it was 8.91 µM; in [6], 27 µM; in [9] it was 23.2 µM. In addition, the figures for the TGI in test [7] and in test [8] were 27.3 µM and 14.9 µM, respectively.
`Cc1ccc(S(=O)(=O)NCCNC2=CC(=O)c3nc4ccccc4c4ccnc2c34)cc1`: the GI50 was 20.1 µM in test [1]; 22.2 µM in test [2]; 16.6 µM in test [3]; 24.1 µM in test [4]; 14.6 µM in test [5]; 20.6 µM in [6]. Also, the results for the GI50 in test [9] and in [8] were 32.3 µM and 32.5 µM, respectively. For the same compound, the TGI in [1] is 49.5 µM; in test [2], 54.4 µM; in test [3], 42.4 µM; in [4], 53.1 µM; in [5] it was 33.9 µM; in test [6], 44.5 µM. Moreover, the TGI worked out at 89 µM in [9] and 79.1 µM in test [8].

The record behind these values is PubChem BioAssay (NCI).
